Laboratory results as given in patent US20180085333A1, “4-PHENYLBUTYRIC ACID DERIVATIVES” (priority 2015, published 2018).

What was measured:
Parameters in all cases: species or system human
tinnitus = test: In vivo activity of 4-PB against tinnitus (patient cases); conditions: two male patients with tinnitus lasting more than ten years, after four months of treatment
Procedure: Two male patients with tinnitus, lasting for more than ten years, were treated with 4-PB.

[1] = system: major depressive disorder; test: In vivo activity of 4-PB against major depressive disorder (patient cases)
Procedure: Four female patients and one patient with major depressive disorders, some of which suffering from other diseases, were treated with 4-PB.

psoriasis = test: In vivo activity of 4-PB against psoriasis (patient case); conditions: received 4-PB for colon carcinoma, after four months of treatment, lasting after sessions of 4-PB
From the text: A patient with generalized psoriasis, who has been treated for years with corticoids ointments, received 4-PB for a colon carcinoma.

[2] = system: recurrent vulvo-vaginitis; test: In vivo activity of 4-PB against recurrent vulvo-vaginitis (patient cases); conditions: two female patients
Procedure: Two female patients were treated with 4-PB for other reasons (one for cancer and one for depressions).

ulcerative colitis = test: In vivo activity of 4-PB against ulcerative colitis (patient case)
[3] = system: primary sclerosing cholangitis; test: In vivo activity of 4-PB against primary sclerosing cholangitis (patient cases); conditions: two female patients chosen for liver transplant, after 5 months of treatment
Procedure: Two female patients with primary sclerosing cholangitis were treated with 4-PB. Both had recurrent fever and abdominal pains for days. Both were chosen for liver transplant.

varicose veins = test: In vivo activity of 4-PB against varicose veins (patient case)
Procedure: A patient with breast cancer was treated with 4-PB.

C[C@@H](NC(=O)CCCc1ccccc1)C(=O)O [4-PB, N-(4-phenylbutanoyl)-D-alanine]
tinnitus (tinnitus): tinnitus has disappeared in both cases | depressions ([1]; four female patients and one patient with major depressive disorders): depressions disappeared in three to five months | recurrence of depression ([1]; four female patients and one patient, after disappearance of depressions): No recurrences have been observed | remission of generalized psoriasis (psoriasis): complete remission | presence of vulvo-vaginitis ([2]; after four months of treatment): both were free of vulvo-vaginitis | remission of vulvo-vaginitis after sessions of 4-PB ([2]; even after sessions of 4-PB): complete remission | response of ulcerative colitis to 4-PB (ulcerative colitis; patient with recurrent episodes of ulcerative colitis): good response | bowel state and symptoms (pain, diarrhea) (ulcerative colitis; patient, after 6 months of treatment): bowels were normal and they had no pain and no diarrhea anymore | symptoms and signs of cholangitis [3]: both were free of symptoms and signs of the underlying cholangitis | spider veins on both legs (varicose veins; patient with breast cancer treated with 4-PB): remained unchanged | enlarged (varicose) veins on both legs (varicose veins; patient with breast cancer, during therapy with 4-PB): disappearance of the enlarged veins on both legs | recurrence of enlarged veins (varicose veins; patient, in the next 10 years): without a recurrence
